Assay results taken from paper PMC8869358, “High-Throughput Chemical Screening and Structure-Based Models to Predict hERG Inhibition” (Biology, 2022).

What follows are molecules tested against hERG (Homo sapiens, UniProt Q12809) (assay: in vitro). Details: fluxor ii thallium influx herg, (-LOG10(IC50), µM).
Chain of hERG (Q12809 whole entry): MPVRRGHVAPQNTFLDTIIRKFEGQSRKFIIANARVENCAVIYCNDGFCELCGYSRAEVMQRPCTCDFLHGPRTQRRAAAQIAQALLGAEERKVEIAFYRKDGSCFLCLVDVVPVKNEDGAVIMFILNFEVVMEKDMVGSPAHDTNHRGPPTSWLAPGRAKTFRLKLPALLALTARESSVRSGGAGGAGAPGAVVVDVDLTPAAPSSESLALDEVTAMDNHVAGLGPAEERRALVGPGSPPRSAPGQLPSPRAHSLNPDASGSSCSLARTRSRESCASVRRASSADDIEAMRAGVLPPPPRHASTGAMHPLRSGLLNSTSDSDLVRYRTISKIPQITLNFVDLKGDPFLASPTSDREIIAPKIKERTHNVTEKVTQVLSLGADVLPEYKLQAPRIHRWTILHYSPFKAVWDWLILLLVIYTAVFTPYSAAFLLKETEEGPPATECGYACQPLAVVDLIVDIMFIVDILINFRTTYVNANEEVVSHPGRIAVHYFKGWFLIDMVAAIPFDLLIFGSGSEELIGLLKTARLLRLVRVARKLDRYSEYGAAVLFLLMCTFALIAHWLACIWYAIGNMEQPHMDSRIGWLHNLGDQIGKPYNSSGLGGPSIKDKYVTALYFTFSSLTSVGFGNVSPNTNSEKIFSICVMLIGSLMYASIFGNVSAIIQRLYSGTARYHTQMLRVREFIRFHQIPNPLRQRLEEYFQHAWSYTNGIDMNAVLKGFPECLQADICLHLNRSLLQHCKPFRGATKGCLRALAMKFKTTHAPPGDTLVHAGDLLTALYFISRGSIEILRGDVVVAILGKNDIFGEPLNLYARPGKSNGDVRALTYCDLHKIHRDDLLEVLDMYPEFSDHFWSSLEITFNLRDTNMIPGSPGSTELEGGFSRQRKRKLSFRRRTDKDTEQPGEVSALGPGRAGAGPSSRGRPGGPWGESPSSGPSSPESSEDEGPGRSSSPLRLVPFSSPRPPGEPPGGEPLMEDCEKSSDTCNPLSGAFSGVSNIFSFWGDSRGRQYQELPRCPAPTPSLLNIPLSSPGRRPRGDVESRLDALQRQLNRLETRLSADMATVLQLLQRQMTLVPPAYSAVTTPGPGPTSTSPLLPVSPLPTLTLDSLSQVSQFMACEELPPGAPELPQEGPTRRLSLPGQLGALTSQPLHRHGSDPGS
`CCCCCCCCCCCC[N+](C)(C)Cc1ccccc1` [Benzyldodecyldimethylammonium bromide] showed an IC50 of 1.25 µM.
For `C=C1C(CCl)(CCl)C2(Cl)C(Cl)C(Cl)C1(Cl)C2(Cl)Cl` (stereo not shown) [Toxaphene], the IC50 was 35.6 µM.

Same assay, conditions: herg fluxor ii thallium influx, (-LOG10(IC50), µM)
`CC1(C)C2(Cl)C(Cl)C(Cl)C(Cl)(C(Cl)Cl)C1(Cl)C2Cl` (stereo not shown) [Strobane] was tested, and the IC50 was 41.2 µM.
Work on `CCCCCCCCCCCC[N+](C)(C)Cc1ccccc1` [Benzyldimethyldodecylammonium chloride] yielded an IC50 of 1.21 µM.
For `CC(=O)[O-].CC(=O)[O-].[Hg+2]` [Mercury(II) acetate], the IC50 was 6.16 µM.
For `ClC1=C(Cl)C2(Cl)C3C(Cl)C(Cl)CC3C1(Cl)C2(Cl)Cl` (stereo not shown) [Technical chlordane], the IC50 was 28.5 µM.
`CCNc1cc2[o+]c3cc(NCC)c(C)cc3c(-c3ccccc3C(=O)OCC)c2cc1C` [Rhodamine 6G] was tested, and the IC50 was 2.45 µM.
